Tests used:
[1] = test system: conversion of squalene oxide to lanosterol; experiment: Cholesterol synthesis in TMD-treated macrophages; format: cell-based; conditions: 12 ug/ml TMD, RAW 264.7 macrophages
[2] = test system: Salmonella; experiment: Intracellular growth of Salmonella in RAW 264.7 macrophages (colony forming units); format: cell-based, S. typhimurium
Experimental: RAW 264.7 macrophages were plated in triplicate at a density of 5×10^5 cells/well, and incubated for 6 hours prior to infection with various treatments (DMEM-FBS, DMEM-LPDS, DMEM-D-FBS+30 uM Mevinolin, or DMEM-FBS+30 uM Mevinolin, or DMEM-FBS+30 uM Mevinolin+150 uM mevalonate). Cells were infected at a multiplicity of infection of 10 bacteria per cell for 15 minutes at 37° C. After infection, monolayers were incubated in media containing 100 ug/ml gentamicin to kill extracellular bacteria and then maintained in media containing 10 ug/ml for the remainder of the experiment. At 20 hours post infection, the cells were washed three times in PBS, lysed in 1% Triton X-100 and then plated to determine colony forming units.
RAW 264.7 macrophages were plated in triplicate at a density of 4×10^5 cells/well, and infected with bacteria at a multiplicity of infection of 10 bacteria per cell for 15 minutes at 37° C.
After infection, the 12 ug/ml of 4,4,10-β trimethyl-trans-decal-3β-ol (TMD) inhibitor was added to the media which also contained 100 ug/ml gentamicin. At 2 hours post infection, the gentamicin concentration was lowered to 10 ug/ml and maintained for the remainder of the experiment. At 20 hours post infection, cells were lysed with 1% Triton X-100 and bacteria were plated for colony forming units.
Macrophages were treated with 50 nM mevinolin for 3 days prior to infection. Cells were infected as described above, lysed with Triton X-100 at 2 and 20 hours post infection, and then plated to determine colony forming units.

[3] = test system: Salmonella; experiment: Extracellular growth of Salmonella in Luria broth (optical density); format: cell-based; conditions: LB containing 30 uM mevinolin, 37° C., optical density at 23 hours and growth curve
Experimental: Triplicate cultures of Salmonella were grown in a shaking incubator at 37° C. in plain LB, or LB containing 30 uM Mevinolin, and optical density was recorded at 23 hours after inoculation (results shown in FIG. 4A). Triplicate cultures of Salmonella were grown in a shaking incubator at 37° C. in plain LB or in LB containing 30 uM Mevinolin and optical density measurements were used to construct a growth curve (results shown in FIG. 4B).

[4] = test system: RAW 264.7 macrophages; experiment: Host cell viability (Alamar Blue reduction); format: cell-based; conditions: 10 nM to 100 uM mevinolin with or without mevalonate, 24 hours, Alamar Blue 3 hours
Experimental: RAW 264.7 macrophages were plated at a density of 1×10^5 cells/well and each sample represents the mean of six wells. Cells were treated with concentrations of mevinolin at 10 nM (1), 100 nM (2), 500 nM (3), 1 uM (4), 10 uM (5), 50 uM (6), 100 uM (7), 50 uM mevinolin+50 uM mevalonate (8), 50 uM mevinolin+150 uM mevalonate (9), 100 uM mevinolin+50 uM mevalonate (10), and 100 uM mevinolin+150 uM mevalonate (11), for 24 hours at 37° C. and then incubated with Alamar Blue for 3 hours.

[5] = test system: Legionella; format: cell-based
[6] = test system: RAW264.7 macrophages infected with S. typhimurium (SL1344); experiment: TUNEL staining of Salmonella-infected macrophages (apoptosis); format: cell-based; conditions: 30 μM mevinolin from 4 hours prior to infection, 13 hours post infection
Experimental: RAW264.7 macrophages were treated with 30 uM mevinolin starting at 4 hours prior to infection. Infections were done with S. typhimurium (SL1344) at a moi of 10 bacteria per cell. At 13 hours post infection, cells were fixed and processed for TUNEL staining. At least 100 infected and 100 uninfected cells were counted in each monolayer and scored for TUNEL staining. Uninfected cells (black) and infected cells (gray) are shown. Averages of duplicate samples are shown.

Structure (SMILES): CC1(C)[C@@H](O)CC[C@]2(C)CCCC[C@@H]12 (relative stereo) [TMD, 4,4,10-β trimethyl-trans-decal-3β-ol]
- cholesterol synthesis of treated cells [1]: accumulated intermediate precursors and made very little cholesterol
- intracellular survival of Salmonella ([2]; 12 ug/ml TMD added after infection, RAW 264.7 macrophages, CFU at 20 hours post infection): did not lead to a decrease in intracellular survival of Salmonella

Structure (SMILES): CC[C@H](C)C(=O)O[C@H]1C[C@@H](C)C=C2C=C[C@H](C)[C@H](CC[C@@H]3C[C@@H](O)CC(=O)O3)[C@H]21 [mevinolin]
- bacterial growth in liquid culture (extracellular growth of Salmonella) [3]: does not affect bacterial growth in liquid culture
- host cell viability [4]: host cell viability is not affected
- intracellular growth of Legionella in human macrophages [5]: inhibited intracellular growth of Legionella in human macrophages
- reversal of the defect in Legionella intracellular growth by mevalonate [5]: could be reversed by the addition of mevalonate
- apoptosis in Salmonella-infected macrophages (TUNEL staining) [6]: induces apoptosis in Salmonella-infected macrophages
- intracellular growth of Salmonella at physiologically relevant concentration ([2]; 50 nM mevinolin for 3 days prior to infection, CFU at 2 and 20 hours post infection): inhibit the intracellular growth of Salmonella
- reversal of the defect in Salmonella intracellular growth by mevalonate ([2]; 30 uM mevinolin + 150 uM mevalonate, RAW 264.7 macrophages): can be reversed by the addition of mevalonate
- Salmonella's intracellular survival ([2]; RAW 264.7 macrophages, 30 uM mevinolin from 6 hours prior to infection, CFU at 20 hours post infection): decreased Salmonella's intracellular survival by a factor of ten

From patent US20030087430A1 (priority 2001, published 2003)
